# Measured values reported in patent US8741955B2, “D-serine transporter inhibitors as pharmaceutical compositions for the treatment of central nervous system disorders” (Allergan, Inc., priority 2011, dated 2014).
# How the values were obtained:
# pre-pulse inhibition = pre-pulse inhibition (PPI) and startle response; assay type: in vivo, rat; settings: D-serine 600 mg/kg, L-4OHPG 15 mg/kg; for effect on the absolute startle response: control experiment
# Procedure: Pre-pulse inhibition was measured using the SR-Lab Startle Response system fitted with a rat enclosure. During the acclimation period, each rat (n=8/group) was habituated with a 5 min interval of 65-dB background noise followed by six 120 dB startle pulses alone, each 40 ms long. This acclimation phase was followed by a 15 min PPI test session where rats were presented with 120 dB startle pulses without a pre-pulse (“pulse alone”) or pulses preceded by a 20 ms pre-pulse of 3, 6, or 12 dB above background noise (“PP3”, “PP6”, or “PP12”, respectively) and ended with five 120 dB startle pulses. PPI was recorded for pre-pulse intensities of 3, 6, and 12 dB, and no stimulus. Each pre-pulse trial was administered in pseudorandom order. The 120 dB pulse alone trials were randomly interspersed within the pre-pulse trials and used for comparison with pre-pulse trials. PPI data were calculated as a percentage of PPI by comparing the pulse-alone versus the PP trials using the formula [100−(response to pre-pulse+120 dB)/(response to 120 dB alone)×100]. Experimenter was masked to treatment during testing and analysis.
# Data were analyzed with a 2-way ANOVA with Condition and Treatment as factors with post hoc Bonferroni comparisons.
# schizophrenic patients = settings: added on to traditional antipsychotic drugs; Labrie and Roder, 2010; cited from earlier work
# [1] = test system: rat hippocampal astrocytes; assay: [3H]D-serine transport into primary cultures of rat hippocampal astrocytes; assay type: cell-based; settings: Astrocyte; inhibition of [3H]D-serine transport, rat hippocampal astrocytes; means of at least two determinations
# [2] = test system: rat hippocampal astrocytes; assay: [3H]L-serine transport into astrocytes; assay type: cell-based
# Procedure: Cell-based assays: the transport of [^3H]L- or D-serine was measured in primary cultures of rat hippocampal astrocytes or in human embryonic kidney (HEK) cells expressing ASCT transporter sub-types. For the astrocyte assays, cells were plated on either 24- or 96-well plates at a density of 50,000 cells per well. For the HEK assays, cells were plated on coated 96-well plates at a density of 80,000 cells/well. Assays were conducted in duplicate at room temperature in assay buffer consisting of: NaCl: 150 mM, KCl: 2 mM; MgCl2: 1 mM; CaCl2: 1 mM; HEPES: Tris buffer: 10 mM, pH7.4. To assess the sodium-dependence of transport, NaCl was replaced in the assay buffer by equimolar choline chloride. Following aspiration of growth medium and 2 washes with assay buffer, cells were incubated with [^3H]L- or D-serine at a final concentration of 1 μM for 5 min (astrocytes) or 1 min (HEK cells), after which the incubation medium was aspirated and the cells washed twice with ice-cold assay buffer. Cells containing radiolabel were solubilized in 100 μl of 1% Triton-X100 and an aliquot counted in a beta counter. IC50 values were determined over a range of at least 6 concentrations and derived from curve-fitting algorithms available in GraphPad Prism 4.
# asc-1 = target: T1, asc-1 (Rattus norvegicus, UniProt P63116); assay: sodium-independent [3H]D-serine transport into rat forebrain synaptosomes; assay type: biochemical; settings: inhibition of [3H]D-serine transport, rat brain synaptosomes; means of at least two determinations
# T1 construct: from tissue; host or cells: rat forebrain P2 (synaptosome) fraction
# T1 sequence (P63116 1-530): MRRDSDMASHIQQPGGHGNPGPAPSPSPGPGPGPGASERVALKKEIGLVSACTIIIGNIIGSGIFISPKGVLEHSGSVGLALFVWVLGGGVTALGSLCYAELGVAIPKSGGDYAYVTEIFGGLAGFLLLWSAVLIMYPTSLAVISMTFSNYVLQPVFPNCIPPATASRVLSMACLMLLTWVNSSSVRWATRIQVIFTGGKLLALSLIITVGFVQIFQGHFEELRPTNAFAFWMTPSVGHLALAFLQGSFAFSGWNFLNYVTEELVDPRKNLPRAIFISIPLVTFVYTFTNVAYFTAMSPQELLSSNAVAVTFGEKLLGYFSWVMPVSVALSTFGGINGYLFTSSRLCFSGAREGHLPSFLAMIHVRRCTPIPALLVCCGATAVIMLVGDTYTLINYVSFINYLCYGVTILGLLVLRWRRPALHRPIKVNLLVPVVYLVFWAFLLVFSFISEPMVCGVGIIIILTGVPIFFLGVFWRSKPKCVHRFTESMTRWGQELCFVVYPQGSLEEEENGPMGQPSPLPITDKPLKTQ
# T1 sequence (Q794F9 1-527 partner): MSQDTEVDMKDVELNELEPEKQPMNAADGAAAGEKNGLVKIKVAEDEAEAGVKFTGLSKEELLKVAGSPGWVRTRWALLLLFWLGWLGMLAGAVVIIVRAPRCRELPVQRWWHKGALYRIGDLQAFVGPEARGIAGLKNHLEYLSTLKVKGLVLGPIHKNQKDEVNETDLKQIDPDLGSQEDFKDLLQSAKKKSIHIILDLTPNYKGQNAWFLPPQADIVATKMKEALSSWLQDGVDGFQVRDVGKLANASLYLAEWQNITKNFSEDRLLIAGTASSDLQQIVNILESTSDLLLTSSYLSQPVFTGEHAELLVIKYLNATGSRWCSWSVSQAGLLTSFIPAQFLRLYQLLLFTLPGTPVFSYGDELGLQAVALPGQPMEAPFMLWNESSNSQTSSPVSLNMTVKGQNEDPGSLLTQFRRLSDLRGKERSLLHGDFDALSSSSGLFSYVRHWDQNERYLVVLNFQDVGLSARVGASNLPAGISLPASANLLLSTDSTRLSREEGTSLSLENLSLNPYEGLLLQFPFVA
# Procedure: Under the assay conditions used, the sodium-independent transport of D-serine by rodent forebrain synaptosomes is mediated by asc-1 (Rutter et al., 2007), and the sodium-dependent transport of D-serine into astrocytes in culture is mediated by an ASCT transporter, ASCT2 according to the literature (Ribeiro et al., 2002).
# Synaptosome assays: a P2 fraction of rat forebrain was prepared and assayed immediately. Aliquots of the P2 preparation (approx. 1 mg of original tissue weight) were incubated in sodium-free assay buffer (CholineCl: 128 mM, KCl: 3.5 mM; KH2PO4: 1.5 mM; MgCl2: 1 mM; CaCl2: 1 mM; glucose: 10 mM; Tris-acetate buffer: 10 mM, pH7.4) containing [^3H]D-serine (final concentration of 50 nM) and test compounds in duplicate for 4 mins at room temperature. The synaptosomes containing radiolabel were collected by filtration onto Whatman GF/C filters, and washed twice with ice cold assay buffer. Filters were solubilized in scintillation fluid and radioactivity determined in a beta counter. IC50 values were determined as described for the cell-based assays above.
Compound,effect on the absolute startle response (pre-pulse inhibition),efficacy in clinical trials of schizophrenic patients (schizophrenic patients),IC50 [1],inhibition of [3H]L-serine transport in astrocytes [2],IC50 (asc-1),"effect on PPI (pre-pulse inhibition; PP3, PP6, PP12)"
N[C@H](CO)C(=O)O [D-serine],neither L-4OHPG nor D-serine had any significant effect,has shown efficacy,1580 µM,completely inhibited,9.4 µM,–
N[C@H](C(=O)O)c1ccc(O)cc1 [L-4-hydroxyphenylglycine],neither L-4OHPG nor D-serine had any significant effect,–,–,–,101 µM,"reduced PPI, an effect that reached significance at the PP12 intensity level"
